Assays:
[1] = Mass spectrometry quantification of SH-BC-893 in plasma and tumor; type: in vivo; settings: SW620 xenograft mice, UPLC-MS/MS
Experimental: In many embodiments, exemplary experimentation was carried out to determine whether azacyclic constrained sphingolipid-lipid molecules inhibited neoplastic growth in vivo. To carry out this experimentation, luciferase-expressing SW620 xenografts were generated in mice.
Mass spectrometry quantification of SH-BC-893. As an internal standard, 75 ng FTY720 was added to 50 μl plasma or 50 μl of tumor homogenate (0.25 M sucrose, 25 mM KCl, 50 mM Tris HCl, 0.5 mM EDTA, pH 7.4; 1:9 wt:volume) combined 1:1 with acetonitrile. Proteins were precipitated and removed by centrifugation (10 min at 15,000 rpm) and the supernatant transferred to a fresh tube on ice containing 50 μl of acetonitrile+0.2% acetic acid. After a second de-proteination with acetonitrile+0.2% acetic acid, 20 μl of de-proteinated samples were analyzed by UPLC-MS/MS using a Waters Micromass Quattro Premier XE equipped with a C18 reversed phase column (Waters) with an acetonitrile+0.2% acetic acid gradient elution. The instrument was operated in positive ion mode. Ion transition channels for multiple reaction monitoring were 290→104 for SH-BC-893 with a dwell time of 200 msec. The cone voltage was 30V. Standard curves used for quantitation were linear from 50-1000 ng/ml with an R^2 of 0.98 or greater. Recovery of internal standard was >80%. Tumor concentrations were calculated assuming that 1 gm=1 mL.

[2] = Blood cell count of pDKO mice; type: in vivo; settings: for % lymphocyte / % neutrophil / Red Blood Cells / White Blood Cells / Hematocrit: pDKO mice, at sacrifice; for White Blood Cells: Means ± SEM, n = 4; for Hematocrit: in % (unit assumed)
Experimental: In vivo studies. Experiments conducted in mice were performed in accordance with the Institutional Animal Care and Use Committee of University of California, Irvine following a power analysis conducted in consultation with the Biostatistics Shared Resource of Chao Family Comprehensive Cancer Center at UCI. Xenografts were produced by injecting 5 million cells subcutaneously in the flank of 10-16 week-old male or female NSG mice. Prostate isografts were produced in the same manner but in male 6-8 wk old C57BL/6 mice. Once tumors reached 100 mm^3, SH-BC-893 was administered by intraperitoneal (i.p.) injection or oral gavage as indicated. Tumor volume was calculated using the formula, volume (mm^3)=length [mm]×(width [mm])^2×0.52; BLI was measured using an IVIS imaging system (Xenogen). To generate pDKO mice on the C57BL6 background, Pten^flox mice (stock No. 0045597) and p53^flox mice (stock No. 008462) were obtained from the Jackson Laboratory and PB-Cre4 mice (strain #01XF5) were obtained from the NCI-Frederick Mouse Repository. Age-matched cohorts of pDKO males were generated by in vitro fertilization executed with the assistance of the Transgenic Mouse Facility at UC Irvine. Treatment was begun at 6-7 wks of age. […] Tumor samples were processed and imaged by the Pathology Research Services Core Facility at UC Irvine. Blood chemistry was analyzed by IDEXX BioResearch and complete blood counts were performed using a Hemavet hematology system.

[3] = tested on: mPCE subcutaneous isografts; test: mPCE subcutaneous prostate isografts; type: in vivo; settings: C57BL/6 mice
Experimental: The ability of starvation-inducing sphingolipid-like drugs to affect the growth of slow growing or autochthonous neoplasms was also evaluated. In C57BL/6 mice bearing mPCE subcutaneous isografts, 60 mg/kg SH-BC-893 was given daily by gavage and slowed tumor growth by 60% similar to results with SW620 xenografts dosed with 20 mg/kg i.p. (FIGS. 53G-I and 65I). At 120 mg/kg, SH-BC-893 inhibited prostate tumor growth by more than 90% (FIG. 65I). […] Akt activity was slightly elevated by SH-BC-893 consistent with loss of TORC1-mediated negative feedback. Thus, sphingolipid-like compounds, such as SH-BC-893, are effective against neoplasms with distinct molecular defects and metabolic characteristics.
In vivo studies. Experiments conducted in mice were performed in accordance with the Institutional Animal Care and Use Committee of University of California, Irvine following a power analysis conducted in consultation with the Biostatistics Shared Resource of Chao Family Comprehensive Cancer Center at UCI. […] Tumor volume was calculated using the formula, volume (mm^3)=length [mm]×(width [mm])^2×0.52; BLI was measured using an IVIS imaging system (Xenogen). […] Blood chemistry was analyzed by IDEXX BioResearch and complete blood counts were performed using a Hemavet hematology system.

[4] = tested on: PI(3,5)P2 levels in HeLa cells; test: Measurement of PI(3,5)P2 by HPLC; type: cell-based
Experimental: In certain embodiments of the invention, sphingolipid-like molecules mis-localize PIKfyve preventing its association with TRMPL1 and inducing vacuolation, instead of inhibiting PIKfyve kinase activity. While PIKfyve localized to the limiting membrane of YM201636-induced vacuoles as expected, PIKfyve was present in clumps between vacuoles in FTY720-treated cells (FIGS. 57C and 56F).
Measurement of PI(3,5)P2 by HPLC. HeLa cells were rinsed twice with PBS and incubated in for 48 h in inositol labeling medium (inositol-free DMEM containing 5 μg/ml transferrin, 5 μg/ml insulin, 10% dialyzed FCS, 20 mM HEPES, 2 mM L-glutamine), and 10 μCi/ml myo-[2-^3H]inositol. Cells were lysed with 4.5% perchloric acid, scraped, and centrifuged at 14,000×g for 10 min at 4° C. Cell pellets were rinsed with 100 mM EDTA, centrifuged again, and re-suspended in 50 μl of water. To deacylate lipids, 1 ml methanol/40% methylamine/butanol (45.7% methanol, 10.7% methylamine, 11.4% butanol) were added and then the mixture was transferred to a glass vial and incubated at 55° C. for 1 h. After cooling to room temperature, samples were vacuum dried and re-suspended in 0.5 ml water. […] The aqueous phase was vacuum dried and re-suspended in 75 μl water and 50 μl of each sample was analyzed by HPLC. PI(3,5)P2 levels were expressed as a percentage of total phosphatidylinositol.

SMILES | concentration in plasma at sacrifice [1] | concentration in tumors at sacrifice [1] | complete blood counts (in words) ([2]; mice treated with 120 mg/kg for 11 weeks) | % lymphocyte ([2]; 60 mg/kg) [%] | % neutrophil ([2]; 60 mg/kg) [%] | Red Blood Cells ([2]; 60 mg/kg) [M/μL] | White Blood Cells ([2]; 60 mg/kg) | Hematocrit ([2]; 60 mg/kg) | % lymphocyte ([2]; 120 mg/kg) [%] | % neutrophil ([2]; 120 mg/kg) [%] | Red Blood Cells ([2]; 120 mg/kg) [M/μL] | White Blood Cells ([2]; 120 mg/kg) | Hematocrit ([2]; 120 mg/kg) | slowing of tumor growth ([3]; 60 mg/kg daily by gavage) [%] | inhibition of prostate tumor growth ([3]; 120 mg/kg) | PI(3,5)P2 levels [4]
CCCCCCCCc1ccc([C@H]2CCN[C@@H]2CO)cc1.Cl [Compound 5, (2S,3R)-2-(hydroxymethyl)-3-(4-octylphenyl)Pyrrolidinium chloride] | low micromolar concentrations | low micromolar concentrations | normal complete blood counts | 77 ± 4 | 14 ± 3 | 8 ± 1 | 5 ± 1 10^3 cells/μL | 32 ± 5 | 73 ± 5 | 19 ± 5 | 9 ± 1 | 8 ± 1 10^3 cells/μL | 41 ± 3 | 60 | more than 90% | 
CCCCCCCCc1ccc(CCC(N)(CO)CO)cc1.Cl [FTY720, 2-Amino-2-[2-(4-octylphenyl)ethyl]propane 1,3-diol hydrochloride, reference compound] |  |  |  |  |  |  |  |  |  |  |  |  |  |  |  | did not inhibit PIKfyve kinase activity or reduce PI(3,5)P2 levels

— patent US10995068B2, “Synthetic sphingolipid-like molecules, drugs, methods of their synthesis and methods of treatment” (The Regents of the University of California, priority 2015, dated 2021)
